We go through 2 molecules from US20230302033A1, “FORMULATIONS OF NICOTINIC ACID DERIVATIVES AND FLAVONOID POLYPHENOLS AND USES THEREOF” (Animal Biosciences, Inc., priority 2021, published 2023).

In one data set the test system is NAD. Kind of data set: Bioavailability and pharmacokinetics of NaR and fisetin: whole blood NAD (Example 6, Studies #1 and #2). The data set is classed as in vivo, Canis familaris (dog)/Beagle. The protocol:
A series of pharmacokinetic studies were conducted to evaluate the bioavailability of a series of dosages and dosing regimens as measured in whole blood in non-fasted, adult Beagle dogs. NaR, NMN, Fisetin, individually and combination dosing (NaR-Fisetin and NMN-Fisetin) were tested.
Tables 1 and 2 show the dosing regimens of Study #1 conducted over 7 days and Study #2 conducted over 28 days, respectively. In Study #1, three dosage combinations were tested (Groups 1-3). An additional group (Group 4) was included to test the effects of fasting on the whole blood concentration of NAD. In Study #2, the effects of each compound individually and in combination were evaluated (Groups 1-3). Study #2 contained another test group (Group 4), which was included to compare the effects of NMN vs NaR in combination with Fisetin by Day 7 to determine if the effects seen on NAD concentration were unique to NaR vs. NAD booster, in general. Baseline NAD concentrations sampled over 24 hours on day −7 served as controls for endogenous NAD concentrations.
Two mL blood samples were collected at each time point using K2EDTA as an anticoagulant from all animals in each dose group. A sample was obtained prior to dosing (Day −7 pre-dose). On Day −7, groups 1-3 had 1 sample collected prior to feeding, and at times 0, 0.25, 0.5, 1, 2, 4, 6, 8, 12, and 24 hours post-Time Zero. On Day 2, groups 1-3 had 1 sample collected prior to feeding (˜2 hr prior to Time Zero) and at times 0, 0.25, 0.5, 1, 2, 4, 6, 8, 12, and 24 hours post-dose. On Days 3-5, samples were collected 2 hours post-dose, and on Day 7 samples were collected prior to feeding Groups 1-3 (˜2 hours prior to Time Zero) from all animals, and at time points 0.25, 0.5, 1, 2, 4, 6, 8, 12, and 24 hours post-dose.
For Group 2, on Day 21, post-dosing, and on Day 35, one sample was collected prior to feeding, and at times 0, 0.25, 0.5, 1, 2, 4, 6, 8, 12, and 24 hours post-Time Zero. The samples were processed for NAD+.
Two mL blood samples were collected at each time point using K2EDTA as an anticoagulant from all animals in each dose group. On Day 0 each group had 1 sample collected at times 0, 0.5, 1, 2, 4, 8, and 12 hours post-Time Zero. On Days 1, 2, 3, and 7, each group had 1 sample collected at times 0, 0.5, 1, 2, 4, 8, and 12 hours post-dose. On Days 14, 21, and 28 Groups 1-3 had samples taken at 0, 0.5, 1, 2, and 12 hours post-dose.
Immediately after collection, the sample tubes were inverted multiple times to ensure homogenization, then placed in an ice water bath until analysis. All samples were processed for NAD+ analysis and Fisetin analysis.
The bioanalytical data was used in the generation of a pharmacokinetic data using parameters calculated for each individual animal for Days 2 and 7, including: Tmax, Cmax, AUC0-24 and T½, as described in the previous examples, and the effect of repeat dosing on exposure was assessed by statistical analyses, e.g., mean and standard deviation for numerical parameters.

A further data set relates to male Beagle dogs. Put plainly: Seven day repeat dose tolerability study of NaR. In kind it is in vivo, Canis familaris (dog)/Beagle. The settings on record: oral capsule, 10, 20 and 30 mg/kg/day for seven days. The protocol:
The objective of this study was to evaluate the tolerability and pharmacokinetic profile following 7-days of repeat dose administration of NaR.
NaR is provided as 100 mg capsule, size 4, stored at 18-26° C., and fisetin is provided as 100 mg capsule, size 0, stored at 18-26° C. Canis familaris (dog)/Beagle—nine non-naïve males, age 1-3 years, weight 7-11 kg.
(§1) The appropriate number of NaR capsules were administered once daily to non-naïve male beagle dogs. Capsules were followed by at least 5 mL of tap water to ensure complete delivery. Animals were fed approximately 2 hours prior to dosing, with food removed approximately 2 hours post-dose. Samples for bioanalysis were collected during the pre-dose period (Day −7; based on Time Zero of 9 am) at 0, 0.25, 0.5, 1, 2, 4, 6, 8, 12, and 24 hours post-Time Zero. Samples were collected on Day 1 and 7 at 0, 0.25, 0.5, 1, 2, 4, 6, 8, 12, and 24 hours post dose, and on Days 3-5 at 2 hours post dose. Samples were analyzed for NAD+ using a bioassay.

The test system of another data set is NAD+. Put plainly: Treated whole blood NAD+ pharmacokinetics after 7-day oral NaR (Examples 1 and 4). The data set is classed as in vivo, Canis familaris (dog)/Beagle. The protocol:
as §1
A non-compartmental Pharmacokinetic (PK) approach consistent with oral route of administration was used to estimate PK parameters in Watson LIMS (version 7.5). All parameters were generated from individual concentrations in treated whole blood whenever practical. Mean values for each dose group were also reported. All concentration values were in ng/mL, and all time points were in hours. Nominal dose concentrations and sampling times were used. The observed maximum treated whole blood concentration (Cmax), time of Cmax (Tmax), and AUC (area under the concentration vs. time curve) were determined directly from the data during the entire 24 hour time interval post dosing. The dose levels were either 10, 20, or 30 mg/kg/day (Groups 1, 2, and 3, respectively). PK samples were collected on days −7 predose, 1 and 7 post dose, of a seven day once daily study. Samples on days 3, 4, and 5 postdose, at only one timepoint were collected but not included in PK parameter estimation.
Whenever possible, standard deviation and coefficient of variation determined by Watson LIMS were used. For analyses that were not supported by Watson, i.e. custom comparisons, Excel was used, and the statistics were reported as determined by Excel algorithms.

For a further data set, the system named is purpose-bred beagles. Kind of data set: Tolerability of orally administered NaR, single dose escalation and 7-day repeat dosing. In kind it is in vivo. The procedure: The tolerability of NaR administered orally was determined in a two-phase laboratory study in purpose-bred beagles (male and female, 6.3-9.2 kg, 6 months old at the start of the study). The first phase of the study included single dose escalations of 100, 300, 1000 and 2000 mg/kg (n=4 per group). The second phase tested repeat dosing consisting of daily dosing over seven days of 100, 300 and 1000 mg/kg (n=6 per group). Administration occurred via oral gavage with an 18 French catheter into the stomach. The animals were assigned to groups by a stratified randomization scheme designed to achieve similar group mean body weights. Males and females were randomized separately.

In data set [1] the test system is mature purpose-bred beagles and mongrels. Kind of data set: Activity and safety of orally administered NaR, 28-day placebo-controlled study. The data set is classed as in vivo. The text has this: A double blinded, placebo-controlled, non-randomized laboratory study to assess activity and safety was completed in 15 mature purpose-bred beagles and mongrels over a period of 28 days. The four males and 11 females ranged in age from 4-11 years, with a mean of 7.75 years. Body weights for beagles (n=12) were 9.5-15 kg and for mongrels (n=3) 24-40 kg. The animals were fitted with activity collars and housed in a room that allowed free movement for ˜ nine hours per day. They received three enrichment periods of 15 minutes per day consisting of interaction with caretakers. The activity of the animals was tracked 24 hours per day using actigraphy (accelerometers attached to the animal's collar) and force plate analysis for assessing changes to gait. A modified canine cognitive dysfunction rating (CCDR) (Madari et al., “Assessment of Severity and Progression of Canine Cognitive Dysfunction Syndrome Using the Canine Dementia Scale (CADES),” Applied Animal Behaviour Science 171: 138-145 (2015), which is hereby incorporated by reference in its entirety) and canine orthopedic index (COI) (Brown, D., “The Canine Orthopedic Index. Step 1: Devising the Items,” Veterinary Surgery 43: 232-240 (2014); Brown, D., “The Canine Orthopedic Index. Step 2: Psychometric Testing,” Veterinary Surgery 43: 241-246 (2014); and Brown, D., “The Canine Orthopedic Index. Step 3: Responsiveness Testing,” Veterinary Surgery 43: 247-254 (2014), which are hereby incorporated by reference in their entirety) were completed pretreatment, and on days 14 and 28. Physical examination, body weight, body condition score (BCS) and complete blood count and blood chemistry were evaluated pretreatment and weekly. The animals were dosed orally with capsules daily after an overnight fast.

A further data set has as its system aged C56BL/6 male mice. Put plainly: Frailty measurements in aged mice (Frailty Index, FRIGHT Age, AFRAID score). In kind it is in vivo. The protocol: Frailty was measured in aged C56BL/6 male mice, starting at 18 months old (n=50 per group) monthly, over time compared with placebo-treated controls. NaR was administered in the water in low and high dosages of 60 and 400 mg/kg. The animals were group housed 4 per cage and the water was changed weekly. The animals were fed ad libitum and received daily photoperiods of approximately 12 hours of light alternating with 12 hours of darkness.
Three validated scoring methods, Frailty Index (Whitehead et al., “A clinical frailty index in aging mice: Comparisons with frailty index data in humans” J Gerontol A Biol Sci Med Sci. 69:621-632(2014)), FRIGHT Age (Schultz et al., “Age and life expectancy clocks based on machine learning analysis of mouse frailty” Nature Comm. 11(1):4618 (2020)) and AFRAID score (Schultz et al., “Age and life expectancy clocks based on machine learning analysis of mouse frailty” Nature Comm. 11(1):4618 (2020)) were conducted at 25 months of age. […]

[2] abbreviates: Beagle dogs, oral NaR 10, 20, 30 mg/kg/day, post dose.
[3] abbreviates: beagles, oral gavage, highest dosage tested.
The mark [4] stands for this setting: beagles, oral gavage, single 100-2000 mg/kg and 7-day 100-1000 mg/kg.
Where [5] appears, read: treated dogs compared with controls, oral capsules daily, 28 days.
Where [6] appears, read: Beagle dogs, all dosing regimens of Studies #1 and #2.

Entries after “also recorded” stand apart in the source; their conditions may differ.

Turning to `O=c1c(O)c(-c2ccc(O)c(O)c2)oc2cc(O)ccc12` [fisetin, 3,3′,4′,7-tetrahydroxyflavone], in the data set on NAD (fisetin only dosing), the “NAD concentration at Day 28” value is reported as “returned to baseline”; the “NAD concentration at days 7, 14 and 21” value is recorded as “decreased”. Also, in the data set with NAD (fisetin only dosing, 20 mg/kg), the “whole blood NAD concentration” value is listed as “below 7000 ng/mL”.
On to `O=C([O-])c1ccc[n+]([C@@H]2O[C@H](CO)[C@@H](O)[C@H]2O)c1` [NaR, nicotinic acid riboside], for which the “test article-related effects on mortality or moribundity, clinical observations, body weight, food consumption; tolerability” value with male Beagle dogs is recorded as “no test article-related effects; also recorded: well tolerated”. Further, in the data set on NAD+ (setting [2]), the “Median Tmax of NAD+ in treated whole blood” value is on record as “less than 2 hours” and the “Tmax of NAD+, range of values” lay within 0 to 2 h. The “NAD+ levels after oral capsule administration” value in the data set with NAD+ (Beagle dogs, oral capsule, 10-30 mg/kg/day, 7 days) is on record as “measurable increases”. The “Mean Cmax of NAD+, change between Day 1 and Day 7” value with NAD+ (all dose groups (10, 20, 30 mg/kg/day)) is on record as “accumulation; also recorded: increase”. For the same molecule, in the data set with NAD+ (highest dose group (30 mg/kg/day) compared to the others), the “NAD+ Cmax ratio between Day 7 and Day 1, individual animals” value is recorded as “clear increase”. Also, the “NAD+ AUC0-24 ratio between Day 7 and Day 1, individual animals” value with NAD+ (mid dose group (20 mg/kg/day) compared to the other two groups) is recorded as “higher value”. For the same molecule, the “Bioavailability (conclusion from NAD+ bioanalysis)” value in the data set with NAD+ (oral capsule, Beagle dogs) is given as “bioavailable”. The “increase in sorbitol dehydrogenase (SDH) activity” value in the data set with purpose-bred beagles (300 and 1000 mg/kg males, 300 mg/kg females, Day 2 vs pretreatment, low magnitude (e.g., 0 U/L to 2 U/L)) is reported as “non-adverse”. Moreover, in the data set with purpose-bred beagles (setting [3]), the “maximum tolerated dosage, 7-day repeat dosing phase” value amounted to 1000 mg/kg/day and the “maximum tolerated dosage, single dosing phase” value is listed as 2000 mg/kg. For the same molecule, in the data set on purpose-bred beagles (setting [4]), the “Body weights and food consumption” value is listed as “unaffected by treatment”; the Survival result is “All animals survived”; the “treatment related clinical observations” value was “no treatment related clinical observations”. In data set [1] (oral capsules daily, 28 days), the adverse clinical observations entry is “No adverse clinical observations”; the “blood chemistry and hematology results” value is “remained within the reference ranges”. Besides, the “canine cognitive dysfunction rating (CCDR) and canine orthopedic index (COI)” value in data set [1] (pretreatment, days 14 and 28) was “No changes”. In addition, in data set [1] (setting [5]), the “movement when resting (sleep), actigraphy” value was “less movement when resting”; the “overall activity (frequency and intensity), diurnal rhythm, actigraphy” value is “increase in overall activity”. Further, the “Frailty vs controls, both treatment groups (60 and 400 mg/kg)” value in the data set on aged C56BL/6 male mice (in two of the three methods) was “significantly different”. Moreover, in the data set on aged C56BL/6 male mice (low dose 60 mg/kg in the water, end of the study, p<0.05), the “Frailty vs controls by all three methods (Frailty Index, FRIGHT Age, AFRAID score)” value is recorded as “significantly less frail”. In addition, in the data set with NAD (setting [6]), the “median AUC0-24 of whole blood NAD” value was 133,000 ng·h/mL and the “median Cmax of whole blood NAD” value is listed as 6990 ng/mL. In addition, in the data set with NAD (NaR only dosing, 20 mg/kg), the “NAD concentration from Day 7 to Day 28” value is recorded as “decrease”. The “NAD concentration from Day 1 to Day 7” value with NAD (NaR only dosing, all dose levels) is listed as “increase”. In addition, the “AUC and NAD concentrations, NaR only dose levels compared” value with NAD (NaR only, dose of 20 mg/kg) was “highest AUC and NAD concentrations”.
